Test results published in patent publication US20240217973A1, “IMIDAZOPYRIDINE COMPOUNDS AND USE THEREOF” (MEDSHINE DISCOVERY INC., priority 2021, published 2024).

Tested on: plasma proteins
Assay: Plasma protein binding experiment (PPB), C
Format: in vitro ADME, cynomolgus monkey
Details: 2 μM, 4 hours dialysis
Protocol: Experimental operation: 995 μL of blank plasma of each genus was taken, 5 μL of working solution of test compound (400 μM) or working solution of warfarin (400 μM) was added, so that the final concentrations of the test compound and warfarin in the plasma sample was 2 μM. The sample was mixed thoroughly. The final concentration of the organic phase DMSO was 0.5%; 50 μL of plasma samples of the test compound and warfarin were pipetted into the sample receiving plate (three parallels), and the corresponding volume of the corresponding blank plasma or buffer was immediately added so that the final volume of each sample well was 100 μL, with a volume ratio of 1:1 for plasma: dialysis buffer, and then 500 μL of stop solution was added to these samples, and these samples would be used as a T0 sample for the recovery and stability determination. […] All samples were analyzed by LC/MS/MS after protein precipitation, and the protein binding rate and recovery rate were calculated by the formula: % Unbound=100*F/T, % Bound=100−% Unbound, % Recovery 100*(F+T) T0 (where F was the peak area ratio of the compound in the dialysate after 4 hours of dialysis; T was the peak area ratio of the compound in the plasma after 4 hours of dialysis, and T0 was the peak area ratio of the compound in the plasma sample at zero time).

Unbound PPB: 4.1%
SMILES: Nc1nccc2c1n(-c1ccc(Oc3ccccc3)cc1)c(=O)n2[C@@H]1CCCN(C(=O)/C=C/CF)C1 [Compound 002]
